Assay [1] concerns the target T1, human recombinant serotonin (5-Hydroxytryptamine) 5-HT6 receptor (Homo sapiens, UniProt P50406).
T1 construct: expressed in transfected cells; host or cells: human HeLa cells
Put plainly: Serotonin 5-HT6 radioligand binding ([3H]LSD). Details: Inhibition of ligand binding, Ser. 5-HT6: concentration or dose not given beside the values. Conditions: for Inhibition of ligand binding, Ser. 5-HT6: percent inhibition of specific binding; for inhibition at 1 µM: compounds screened at 1 μM, read-out: Inhibition of ligand binding, Ser. 5-HT6 (percent inhibition of specific binding). An excerpt:
Receptor proteins were filtered and washed, the filters were then counted to determine [3H]LSD specifically bound. […] Biochemical assay results are presented as the percent inhibition of specific binding in Table 6.

Assay [2] addresses T2, human recombinant adrenergic α2A receptor (Homo sapiens, UniProt P08913).
T2 construct: expressed in transfected cells; host or cells: insect Sf9 cells
T2 sequence (P08913 1-465): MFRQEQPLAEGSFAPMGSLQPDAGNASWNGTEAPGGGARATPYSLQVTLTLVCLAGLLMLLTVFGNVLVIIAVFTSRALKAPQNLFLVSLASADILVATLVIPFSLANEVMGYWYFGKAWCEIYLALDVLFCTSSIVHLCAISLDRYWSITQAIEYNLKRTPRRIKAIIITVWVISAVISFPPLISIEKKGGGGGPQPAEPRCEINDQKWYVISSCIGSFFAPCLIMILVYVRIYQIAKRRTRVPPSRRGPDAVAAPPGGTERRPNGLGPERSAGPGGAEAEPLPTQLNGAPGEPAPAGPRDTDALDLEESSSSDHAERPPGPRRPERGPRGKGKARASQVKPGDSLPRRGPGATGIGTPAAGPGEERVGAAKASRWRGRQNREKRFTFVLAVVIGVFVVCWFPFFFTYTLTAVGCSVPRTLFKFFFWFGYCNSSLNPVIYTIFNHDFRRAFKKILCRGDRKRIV
Put plainly: Adrenergic α2A radioligand binding ([3H]MK-912). On the set-up: Inhibition of ligand binding, Adren. alpha2A: concentration or dose not given beside the values. Conditions: for Inhibition of ligand binding, Adren. alpha2A: percent inhibition of specific binding; for inhibition at 1 µM: compounds screened at 1 μM, read-out: Inhibition of ligand binding, Adren. alpha2A (percent inhibition of specific binding). An outline of the steps:
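Membranes from Sf9 cells expressing the receptor were incubated with 1 nM [3H]MK-912 for 60 minutes at 25° C in 50 mM Tris-HCl pH 7.4, 12.5 mM MgCl2, 2 mM EDTA. 10 μM WB-4101 defined non-specific binding. Values are percent inhibition of specific bound radioactivity after filtration.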

Assay [3] deals with T3, Serotonin (5-Hydroxytryptamine) 5-HT7 (Homo sapiens, UniProt P34969).
T3 construct: expressed in transfected cells; host or cells: CHO cells
T3 sequence (P34969 whole entry): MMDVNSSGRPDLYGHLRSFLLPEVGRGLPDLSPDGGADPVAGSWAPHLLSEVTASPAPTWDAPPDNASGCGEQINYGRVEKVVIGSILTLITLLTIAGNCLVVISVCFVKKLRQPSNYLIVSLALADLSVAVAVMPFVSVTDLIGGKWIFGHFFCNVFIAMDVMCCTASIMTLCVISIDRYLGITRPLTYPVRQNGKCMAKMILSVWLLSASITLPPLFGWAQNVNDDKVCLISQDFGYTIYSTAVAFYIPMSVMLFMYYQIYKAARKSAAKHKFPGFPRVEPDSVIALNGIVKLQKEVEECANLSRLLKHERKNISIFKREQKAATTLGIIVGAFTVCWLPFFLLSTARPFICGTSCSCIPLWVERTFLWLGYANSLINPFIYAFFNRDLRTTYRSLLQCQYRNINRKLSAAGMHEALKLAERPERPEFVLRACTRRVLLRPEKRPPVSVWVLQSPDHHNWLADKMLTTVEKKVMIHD
Put plainly: Serotonin 5-HT7 radioligand binding ([3H]LSD). Details: Inhibition of ligand binding, Ser. 5-HT7: concentration or dose not given beside the values. As to conditions: for Inhibition of ligand binding, Ser. 5-HT7: percent inhibition of specific binding; for inhibition at 1 µM: compounds screened at 1 μM, read-out: Inhibition of ligand binding, Ser. 5-HT7 (percent inhibition of specific binding). Here is the method:
Lysergic acid diethylamide (LSD) for 2 hours at 25° C. […] Receptor proteins were filtered and washed, the filters were then counted to determine [^3H]LSD specifically bound. […] Biochemical assay results are presented as the percent inhibition of specific binding in Table 6.

The target of assay [4] is T4, human recombinant histamine H1 receptor (Homo sapiens, UniProt P35367).
T4 construct: expressed in transfected cells; host or cells: CHO cells
T4 sequence (P35367 whole entry): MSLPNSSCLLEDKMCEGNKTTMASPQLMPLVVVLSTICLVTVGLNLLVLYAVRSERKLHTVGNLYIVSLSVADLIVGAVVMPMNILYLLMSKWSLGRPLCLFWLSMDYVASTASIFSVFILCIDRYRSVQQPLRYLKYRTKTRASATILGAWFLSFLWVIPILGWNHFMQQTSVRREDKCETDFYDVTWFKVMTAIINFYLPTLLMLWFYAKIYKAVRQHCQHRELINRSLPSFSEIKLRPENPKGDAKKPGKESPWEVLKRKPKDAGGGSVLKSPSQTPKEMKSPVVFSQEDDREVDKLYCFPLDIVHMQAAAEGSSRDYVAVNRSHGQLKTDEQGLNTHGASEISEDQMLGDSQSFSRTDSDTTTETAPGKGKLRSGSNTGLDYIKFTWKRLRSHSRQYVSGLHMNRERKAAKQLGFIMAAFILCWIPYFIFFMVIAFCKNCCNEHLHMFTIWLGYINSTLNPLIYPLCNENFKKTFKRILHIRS
Put plainly: Histamine H1 radioligand binding ([3H]Pyrilamine). An outline of the steps: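 Receptor expressed in CHO cells, assayed in 50 mM Tris-HCl pH 7.4 with 2 mM MgCl2, 100 mM NaCl, 250 mM sucrose. Compounds tested at 1 μM in 1% DMSO; non-specific binding set with 1 μM pyrilamine. Filter-bound radioactivity counted; values are percent inhibition of specific binding.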

Where [5] appears, read: 1 μM compound, […] [3H]Pyrilamine, read-out: Histamine Binding H1, percent inhibition of specific binding.
Where [6] appears, read: percent inhibition of specific binding, screened at 1 μM, read-out: Inhibition of ligand binding, Hist. H1.
[7] abbreviates: compounds screened at 1 μM, read-out: Inhibition of ligand binding, Hist. H1 (percent inhibition of specific binding).

Like-named read-outs stand apart in the source and are kept apart here.

This note sets out measurements from patent publication US9096591B2, “Tetracyclic compounds” (Medivation Technologies, Inc., priority 2007, dated 2015).

A word on the inhibition: it is the drop in the measured response relative to a control, in per cent.

T1 sequence (P50406 whole entry): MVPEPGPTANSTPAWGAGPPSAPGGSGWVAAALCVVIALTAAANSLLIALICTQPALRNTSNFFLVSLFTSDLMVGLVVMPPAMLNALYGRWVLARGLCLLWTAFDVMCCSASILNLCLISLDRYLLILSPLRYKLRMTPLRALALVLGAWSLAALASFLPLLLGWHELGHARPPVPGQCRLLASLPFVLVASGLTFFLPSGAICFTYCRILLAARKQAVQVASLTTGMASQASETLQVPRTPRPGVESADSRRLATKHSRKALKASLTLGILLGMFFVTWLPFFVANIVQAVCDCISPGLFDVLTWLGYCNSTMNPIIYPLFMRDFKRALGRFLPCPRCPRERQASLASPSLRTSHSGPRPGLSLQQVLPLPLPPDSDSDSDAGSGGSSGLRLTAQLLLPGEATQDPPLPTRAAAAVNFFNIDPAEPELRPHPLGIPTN

For the compound `CCN1CCc2c(c3ccccc3n2CCc2ccccn2)C1` [Compound 6], the “Inhibition of ligand binding, Ser. 5-HT6” value in assay [1] worked out at 7%. Also, the “Inhibition of ligand binding, Adren. alpha2A” value (shortened to “Inhibition … Adren. alpha2A”) in assay [2] is recorded as 20%. The “Inhibition of ligand binding, Ser. 5-HT7” value in assay [3] amounted to 39%. Besides, the inhibition at 1 µM in assay [4] (setting [5]) and in assay [4] (setting [6]) was 32% throughout.

Regarding `CN1CCc2c(c3cc(F)ccc3n2CCc2nc(-c3ccccc3)cs2)C1` [Compound C1-7], the inhibition at 1 µM in assay [1] is 91%; in assay [2] it was 88%; in assay [3], 90%; in assay [4] (setting [7]), 99%.

Turning to `CN1CCc2c(c3ccccc3n2CCc2ccccn2)C1` [Compound 329, 2,3,4,5-tetrahydro-2-methyl-5-(2-(pyridin-2-yl)ethyl)-1H-pyrido[4,3-b]indole], the “Inhibition of ligand binding, Ser. 5-HT6” value in assay [1] came to 15%. Besides, the “Inhibition … Adren. alpha2A” value in assay [2] turned out to be 37%. Besides, the “Inhibition of ligand binding, Ser. 5-HT7” value in assay [3] is reported as 78%. Also, in assay [4] (setting [6]), the inhibition at 1 µM came out at 18%.

Consider `Cc1ccc2c(c1)c1c(n2CCC(=O)N2CCC(N)CC2)CCN(C)C1` [Compound 231, 1-(4-aminopiperidin-1-yl)-3-(1,2,3,4-tetrahydro-2,8-dimethylpyrido[4,3-b]indol-5-yl)propan-1-one], for which the “Inhibition of ligand binding, Ser. 5-HT6” value in assay [1] is reported as 3%. For the same compound, in assay [2], the “Inhibition … Adren. alpha2A” value is listed as 29%. The “Inhibition of ligand binding, Ser. 5-HT7” value in assay [3] is listed as 0%. In addition, the inhibition at 1 µM in assay [4] (setting [5]) and in assay [4] (setting [6]) was -11% throughout.

`CCOC(=O)N1CCc2c(c3cc(-c4cccnc4)ccc3n2CCc2ccc(C)nc2)C1` [Compound 19, ethyl 3,4-dihydro-5-(2-(6-methylpyridin-3-yl)ethyl)-8-(pyridin-3-yl)-1H-pyrido[4,3-b]indole-2(5H)-carboxylate]: the “Inhibition of ligand binding, Ser. 5-HT6” value in assay [1] is on record as −5%. In assay [2], the “Inhibition … Adren. alpha2A” value is on record as −8%. Further, the “Inhibition of ligand binding, Ser. 5-HT7” value in assay [3] is 12%. Also, the inhibition at 1 µM in assay [4] (setting [5]) and in assay [4] (setting [6]) was -3% throughout.

As to `Cc1ccc2c(c1)c1c(n2CCN2CCCC2)CCN(C)C1` [Compound 221, 2,3,4,5-tetrahydro-2,8-dimethyl-5-(2-(pyrrolidin-1-yl)ethyl)-1H-pyrido[4,3-b]indole], the “Inhibition of ligand binding, Ser. 5-HT6” value in assay [1] is 29%. Also, in assay [2], the “Inhibition … Adren. alpha2A” value is 37%. Moreover, the “Inhibition of ligand binding, Ser. 5-HT7” value in assay [3] was 36%. For the same compound, the inhibition at 1 µM in assay [4] (setting [5]) and in assay [4] (setting [6]) was 78% throughout.

For `CCN1CCc2c(c3cc(C)ccc3n2Cc2ccc(C)nc2)C1` [Compound 138, 2-ethyl-2,3,4,5-tetrahydro-8-methyl-5-((6-methylpyridin-3-yl)methyl)-1H-pyrido[4,3-b]indole], the “Inhibition of ligand binding, Ser. 5-HT6” value in assay [1] was found to be 22%. Moreover, the “Inhibition … Adren. alpha2A” value in assay [2] is listed as 31%. For the same compound, the “Inhibition of ligand binding, Ser. 5-HT7” value in assay [3] amounted to 23%. Moreover, the inhibition at 1 µM in assay [4] (setting [5]) and in assay [4] (setting [6]) was 68% in each case.

As to `CCOC(=O)N1CCc2c(c3cc(Br)ccc3n2CCc2ccc(C)nc2)C1` [Compound 18, ethyl 8-bromo-3,4-dihydro-5-(2-(6-methylpyridin-3-yl)ethyl)-1H-pyrido[4,3-b]indole-2(5H)-carboxylate], the “Inhibition of ligand binding, Ser. 5-HT6” value in assay [1] turned out to be 6%. Also, in assay [2], the “Inhibition … Adren. alpha2A” value is −10%. Also, the “Inhibition of ligand binding, Ser. 5-HT7” value in assay [3] turned out to be 10%. For the same compound, the inhibition at 1 µM in assay [4] (setting [5]) and in assay [4] (setting [6]) was -14% throughout.

On to `Cc1ccc2c(c1)c1c(n2CCc2noc(-c3ccccc3)n2)CCN(C)C1` [Compound C4-4], for which the inhibition at 1 µM was found to be 103% in assay [1], 96% in assay [2], 96% in assay [3] and 101% in assay [4] (setting [7]).

On to `CCN1CCc2c(c3ccccc3n2CCc2ccncc2)C1` [Compound 5], for which the “Inhibition of ligand binding, Ser. 5-HT6” value in assay [1] is 1%. For the same compound, the “Inhibition … Adren. alpha2A” value in assay [2] turned out to be 20%. Besides, the “Inhibition of ligand binding, Ser. 5-HT7” value in assay [3] was 37%. Besides, the inhibition at 1 µM in assay [4] (setting [5]) and in assay [4] (setting [6]) was 82% each time.

In the case of `CCOC(=O)N1CCc2c(c3cc(C)ccc3n2CCc2ccccc2)C1` [Compound 24, ethyl 3,4-dihydro-8-methyl-5-phenethyl-1H-pyrido[4,3-b]indole-2(5H)-carboxylate], in assay [1], the “Inhibition of ligand binding, Ser. 5-HT6” value is −4%. Also, the “Inhibition … Adren. alpha2A” value in assay [2] is given as 7%. For the same compound, the “Inhibition of ligand binding, Ser. 5-HT7” value in assay [3] is −2%. The inhibition at 1 µM in assay [4] (setting [5]) and in assay [4] (setting [6]) was -4% in each case.

On to `CCN1CCc2c(c3cc(C)ccc3n2CCc2ccccn2)C1` [Compound 23, 2-ethyl-2,3,4,5-tetrahydro-8-methyl-5-(2-(pyridin-2-yl)ethyl)-1H-pyrido[4,3-b]indole], for which, in assay [1], the “Inhibition of ligand binding, Ser. 5-HT6” value came to 47%. In assay [2], the “Inhibition … Adren. alpha2A” value was 57%. Further, the “Inhibition of ligand binding, Ser. 5-HT7” value in assay [3] amounted to 94%. Also, the inhibition at 1 µM in assay [4] (setting [5]) and in assay [4] (setting [6]) was 69% in each case.

In the case of `Cc1ccc2c(c1)c1c(n2Cc2ccc(C)nc2)CCN(C)C1` [Compound 139, 2,3,4,5-tetrahydro-2,8-dimethyl-5-((6-methylpyridin-3-yl)methyl)-1H-pyrido[4,3-b]indole], the “Inhibition of ligand binding, Ser. 5-HT6” value in assay [1] was found to be 39%. Further, the “Inhibition … Adren. alpha2A” value in assay [2] worked out at 50%. Moreover, the “Inhibition of ligand binding, Ser. 5-HT7” value in assay [3] is listed as 74%. Moreover, the inhibition at 1 µM in assay [4] (setting [5]) came to 81%; in assay [4] (setting [6]), 74%.

`CCN1CCc2c(c3ccccc3n2CCc2ccc(C)cc2)C1` [Compound 3, 2-ethyl-2,3,4,5-tetrahydro-5-(4-methylphenethyl)-1H-pyrido[4,3-b]indole]: the “Inhibition of ligand binding, Ser. 5-HT6” value in assay [1] was 40%. The “Inhibition … Adren. alpha2A” value in assay [2] was 86%. Moreover, in assay [3], the “Inhibition of ligand binding, Ser. 5-HT7” value came to 81%. Further, the inhibition at 1 µM in assay [4] (setting [5]) and in assay [4] (setting [6]) was 88% throughout.

Turning to `CN1CCc2c(c3cc(Cl)ccc3n2CCc2noc(-c3ccccc3)n2)C1` [Compound C4-6], the inhibition at 1 µM in assay [1] amounted to 105%; in assay [2], 96%; in assay [3] it was 90%; in assay [4] (setting [7]) it was 100%.

For `Cc1ccc2c(c1)c1c(n2CCC2CCCCC2)CCN(C)C1` [Compound 163, 5-(2-cyclohexylethyl)-2,3,4,5-tetrahydro-2,8-dimethyl-1H-pyrido[4,3-b]indole], in assay [1], the “Inhibition of ligand binding, Ser. 5-HT6” value stood at 99%. In addition, the “Inhibition … Adren. alpha2A” value in assay [2] is 93%. Moreover, in assay [3], the “Inhibition of ligand binding, Ser. 5-HT7” value is reported as 95%. For the same compound, in assay [4] (10 nM (0.01 μM) compound, […] [3H]Pyrilamine, read-out: Histamine Binding H1, percent inhibition of specific binding), the inhibition at 0.01 µM is 59%. In addition, the inhibition at 0.1 µM in assay [4] (0.1 μM compound, […] [3H]Pyrilamine, read-out: Histamine Binding H1, percent inhibition of specific binding) was 92%. Besides, the inhibition at 1 µM in assay [4] (setting [5]) and in assay [4] (setting [6]) was 103% in each case.

Turning to `Cc1ccc2c(c1)c1c(n2CCc2ccc(C)nc2)C(Br)C(=O)N(C)C1` (centres unmarked) [Compound 232, 4-bromo-1,2-dihydro-2,8-dimethyl-5-(2-(6-methylpyridin-3-yl)ethyl)-4H-pyrido[4,3-b]indol-3(5H)-one], in assay [1], the “Inhibition of ligand binding, Ser. 5-HT6” value was −7%. In assay [2], the “Inhibition … Adren. alpha2A” value is 2%. The “Inhibition of ligand binding, Ser. 5-HT7” value in assay [3] is listed as 6%. Besides, the inhibition at 1 µM in assay [4] (setting [5]) and in assay [4] (setting [6]) was -6% in each case.
